We go through eight compounds from ChEMBL document CHEMBL2069217, “Self-organizing molecular field analysis of NSAIDs: assessment of pharmacokinetic and physicochemical properties using 3D-QSPkR approach” (Eur J Med Chem, 2012).

The term pKa denotes the pH at which an ionisable group is half protonated. Read a high pKa as a group that holds its proton tightly.

A short description of this data set: Dissociation constant, pKa of the compound. It is filed as physicochemical.

Each structure is given as a SMILES string.

For the compound `CC1=C(CC(=O)O)c2cc(F)ccc2/C1=C\c1ccc([S+](C)[O-])cc1` (stereo not drawn), the pKa amounted to 4.5.
For `CC(C(=O)O)c1ccc2oc(-c3ccc(Cl)cc3)nc2c1` (stereo not drawn) [BENOXAPROFEN], the pKa is 6.9.
The result for `CC(C(=O)O)c1ccc2c(c1)[nH]c1ccc(Cl)cc12` (stereo not drawn) [CARPROFEN] reads 4.7; that for `Cc1cccc(Nc2ccccc2C(=O)O)c1C` [MEFENAMIC ACID], 4.2.
With `O=C(O)CCc1nc(-c2ccccc2)c(-c2ccccc2)o1` [OXAPROZIN], the pKa is 4.3.
Compound `CCCCC1C(=O)N(c2ccccc2)N(c2ccc(O)cc2)C1=O` (stereo not drawn) [OXYPHENBUTAZONE ANHYDROUS] had a pKa of 4.7.
In turn, `CC(C(=O)O)c1ccc(C(=O)c2cccs2)cc1` (stereo not drawn) [SUPROFEN] came in with a pKa of 4.
The compound `Cc1cc(CC(=O)O)n(C)c1C(=O)c1ccc(Cl)cc1` [ZOMEPIRAC] yielded a pKa of 4.7.
